This passage reports T/C results from PubChem BioAssay AID200 (DTP/NCI, 2004).

“And” between values parts separate entries of the source, which are not always exact repeats. Equal entries are not always repeated. Inconclusive results and toxic doses are left out.

For the test, the system named is B6C3F1 mice, B16 melanoma ip, median survival T/C. Kind of test: NCI In Vivo Anticancer Drug Screen. Data for tumor model B16 Melanoma (intraperitoneal) in B6C3F1 mice. Particulars: endpoint: median survival time, higher = longer survival. Put shortly: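 Values are T/C ratios: the measurement in treated animals divided by that in vehicle-treated controls, using survival or tumor size in mice carrying transplantable tumors.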

Where [1] appears, read: dose: 0.5 mg/kg/injection, schedule: Q01DX009 (ip), vehicle: water.
Setting [2] is: dose: 100.0 mg/kg/injection, schedule: Q01DX009 (ip), vehicle: saline.
Setting [3] is: dose: 25.0 mg/kg/injection, schedule: Q01DX009 (ip), vehicle: saline.
[4] abbreviates: dose: 50.0 mg/kg/injection, schedule: Q01DX009 (ip), vehicle: saline.
[5] abbreviates: dose: 12.5 mg/kg/injection, schedule: Q01DX009 (ip), vehicle: saline with Tween-80.
Where [6] appears, read: dose: 25.0 mg/kg/injection, schedule: Q01DX009 (ip), vehicle: saline with Tween-80.
Where [7] appears, read: dose: 50.0 mg/kg/injection, schedule: Q01DX009 (ip), vehicle: saline with Tween-80.
[8] abbreviates: dose: 100.0 mg/kg/injection, schedule: Q01DX009 (ip), vehicle: saline with Tween-80.
[9] abbreviates: dose: 200.0 mg/kg/injection, schedule: Q01DX009 (ip), vehicle: saline with Tween-80.

For the molecule `COc1cc2c(c(OC)c1OC)-c1ccc(OC)c(=O)cc1[C@@H](NC(C)=O)CC2`, the T/C runs as follows: (dose: 0.02 mg/kg/injection, schedule: Q01DX009 (ip), vehicle: saline) 108 % of control; (dose: 0.04 mg/kg/injection, schedule: Q01DX009 (ip), vehicle: saline) 123 % of control; (dose: 0.13 mg/kg/injection, schedule: Q01DX009 (ip), vehicle: Klucel (hydroxypropylcellulose) (HPC)) 158 % of control; (dose: 0.19 mg/kg/injection, schedule: Q01DX009 (ip), vehicle: saline) 156 % of control; (dose: 0.25 mg/kg/injection, schedule: Q01DX009 (ip), vehicle: Klucel (hydroxypropylcellulose) (HPC)) 155 % of control; (dose: 0.25 mg/kg/injection, schedule: Q01DX009 (ip), vehicle: saline) 164 % of control. In addition, the T/C (dose: 0.37 mg/kg/injection, schedule: Q01DX009 (ip), vehicle: saline) was 167 % of control; the T/C (dose: 0.38 mg/kg/injection, schedule: Q01DX009 (ip), vehicle: saline) was 168 % of control; the T/C (dose: 0.5 mg/kg/injection, schedule: Q01DX009 (ip), vehicle: Klucel (hydroxypropylcellulose) (HPC)) was 173 % of control; the T/C (dose: 0.5 mg/kg/injection, schedule: Q01DX009 (ip), vehicle: saline) is 154 % of control; the T/C under setting [1] was 157 % of control; the T/C (dose: 1.0 mg/kg/injection, schedule: Q01DX009 (ip), vehicle: saline) is 154 % of control. The T/C runs as follows: (dose: 125.0 micrograms/kg/injection, schedule: Q01DX009 (ip), vehicle: water) 161 % of control; (dose: 250.0 micrograms/kg/injection, schedule: Q01DX009 (ip), vehicle: water) 154 % of control; (dose: 500.0 micrograms/kg/injection, schedule: Q01DX009 (ip), vehicle: water) 155 % of control.
`CC(OCc1ccccc1)C(NC(=O)OC(C)(C)C)C(=O)O` (configuration not stated): the T/C is 92 % of control (dose: 100.0 mg/kg/injection, schedule: Q01DX009 (ip), vehicle: Klucel (hydroxypropylcellulose) (HPC)); 100 % of control (dose: 200.0 mg/kg/injection, schedule: Q01DX009 (ip), vehicle: Klucel (hydroxypropylcellulose) (HPC)); 96 % of control (dose: 400.0 mg/kg/injection, schedule: Q01DX009 (ip), vehicle: Klucel (hydroxypropylcellulose) (HPC)).
In the case of `NC(CCCNc1ccc(O)cc1)C(=O)O` (configuration not stated), the T/C runs as follows: (dose: 75.0 mg/kg/injection, schedule: Q01DX009 (ip), vehicle: saline) 122 % of control; under setting [2], 98 % of control; (dose: 150.0 mg/kg/injection, schedule: Q01DX009 (ip), vehicle: saline) 106 % of control.
As to `COc1cccc2c1C(=O)c1c(O)c3c(c(O)c1C2=O)C[C@@](O)(C(=O)CO)C[C@@H]3OC1CC(N)C(O)C(C)O1` (some centres not stated), the T/C runs as follows: (dose: 0.12 mg/kg/injection, schedule: Q01DX009 (ip), vehicle: water) 166 % of control; (dose: 0.13 mg/kg/injection, schedule: Q01DX009 (ip), vehicle: water) 195 % of control; (dose: 0.25 mg/kg/injection, schedule: Q01DX009 (ip), vehicle: water) 188 % of control and 212 % of control and 252 % of control; (dose: 0.5 mg/kg/injection, schedule: Q01DX001 (ip), vehicle: saline) 152 % of control and 159 % of control; under setting [1], 226 % of control and 247 % of control and 285 % of control; (dose: 1.0 mg/kg/injection, schedule: Q01DX001 (ip), vehicle: saline) 165 % of control and 193 % of control. For the same molecule, the T/C runs as follows: (dose: 1.0 mg/kg/injection, schedule: Q01DX009 (ip), vehicle: water) 264 % of control and 285 % of control and 320 % of control; (dose: 2.0 mg/kg/injection, schedule: Q01DX001 (ip), vehicle: saline) 151 % of control and 192 % of control and 244 % of control; (dose: 2.0 mg/kg/injection, schedule: Q01DX005 (ip), vehicle: saline) 326 % of control; (dose: 2.0 mg/kg/injection, schedule: Q01DX009 (ip), vehicle: water) 229 % of control and 278 % of control and 285 % of control; (dose: 4.0 mg/kg/injection, schedule: Q01DX001 (iv), vehicle: saline) 109 % of control; (dose: 4.5 mg/kg/injection, schedule: Q01DX001 (ip), vehicle: saline) 195 % of control. For the same molecule, the T/C by setting is: (dose: 9.0 mg/kg/injection, schedule: Q01DX001 (ip), vehicle: saline) 174 % of control and 255 % of control; (dose: 18.0 mg/kg/injection, schedule: Q01DX001 (ip), vehicle: saline) 103 % of control; (dose: 10.0 micrograms/kg/injection, schedule: Q01DX005 (ip), vehicle: saline) 100 % of control; (dose: 10.0 micrograms/mouse/injection, schedule: Q01DX005 (ip), vehicle: saline) 220 % of control; (dose: 20.0 micrograms/kg/injection, schedule: Q01DX005 (ip), vehicle: saline) 116 % of control; (dose: 20.0 micrograms/mouse/injection, schedule: Q01DX005 (ip), vehicle: saline) 197 % of control. Also, the T/C (dose: 40.0 micrograms/mouse/injection, schedule: Q01DX005 (ip), vehicle: saline) was 273 % of control.
Take `NCCc1cc(O)c(O)c(O)c1`: the T/C (dose: 12.5 mg/kg/injection, schedule: Q01DX009 (ip), vehicle: saline) was 106 % of control; the T/C under setting [3] was 105 % of control; the T/C under setting [4] is 101 % of control; the T/C under setting [2] was 98 % of control; the T/C (dose: 200.0 mg/kg/injection, schedule: Q01DX009 (ip), vehicle: saline) is 106 % of control; the T/C (dose: 400.0 mg/kg/injection, schedule: Q01DX009 (ip), vehicle: saline) is 96 % of control.
As for `CC(=O)C[n+]1ccc(C)cc1Sc1ccccc1C`, the T/C is 97 % of control under setting [5]; 97 % of control under setting [6]; 96 % of control under setting [7]; 100 % of control under setting [8]; 101 % of control under setting [9].
With `BrC1c2cccc3cccc(c23)C1Br` (configuration not stated), the T/C is 123 % of control under setting [5] and 155 % of control under setting [7].
As for `COc1ccc(OCC(O)CN2CCN(c3ccc(Cl)cc3)CC2)cc1` (configuration not stated), the T/C under setting [5] was 122 % of control; the T/C under setting [6] was 122 % of control; the T/C under setting [7] is 87 % of control; the T/C under setting [8] was 89 % of control and 96 % of control.
As for `O=S(=O)(N=N/C=C1\C=CC=CN1O)c1cccs1`, the T/C reads like this: under setting [5], 101 % of control; under setting [6], 104 % of control; under setting [7], 114 % of control.
With `CCCCCCCCCCCCO[P+](=O)OCCCCCCCCCCCC`, the T/C under setting [7] is 94 % of control and the T/C under setting [8] is 96 % of control.
As to `O=C[C@@H](CO)O[C@H](C=O)c1c[nH]c(=O)[nH]c1=O`, the T/C under setting [3] is 105 % of control and the T/C under setting [4] is 110 % of control.
Consider `CC(C)(C)N1CC1CNC(=O)C(=O)NCC1CN1C(C)(C)C` (configuration not stated), for which the T/C (dose: 0.78 mg/kg/injection, schedule: Q01DX009 (ip), vehicle: saline with Tween-80) is 99 % of control; the T/C (dose: 1.56 mg/kg/injection, schedule: Q01DX009 (ip), vehicle: saline with Tween-80) was 101 % of control; the T/C (dose: 3.12 mg/kg/injection, schedule: Q01DX009 (ip), vehicle: saline with Tween-80) was 109 % of control; the T/C under setting [5] is 150 % of control.
Turning to `CC1(C)CC2(C)OC2C2(C1)N=NC(=Nc1ccccc1)O2` (configuration not stated), the T/C under setting [6] is 96 % of control, the T/C under setting [7] was 100 % of control and the T/C under setting [8] was 89 % of control.
For the molecule `O=C(Nc1nncs1)c1ccncc1`, the T/C is 108 % of control under setting [5], 102 % of control under setting [6] and 92 % of control under setting [7].
As for `OC1OC2COC(c3ccccc3)OC2C(O)C1O` (configuration not stated), the T/C is, setting by setting: (dose: 25.0 mg/kg/injection, schedule: Q01DX009 (ip), vehicle: water) 103 % of control; (dose: 50.0 mg/kg/injection, schedule: Q01DX009 (ip), vehicle: water) 96 % of control; (dose: 100.0 mg/kg/injection, schedule: Q01DX009 (ip), vehicle: water) 110 % of control; (dose: 200.0 mg/kg/injection, schedule: Q01DX009 (ip), vehicle: water) 98 % of control; (dose: 400.0 mg/kg/injection, schedule: Q01DX009 (ip), vehicle: water) 94 % of control; (dose: 800.0 mg/kg/injection, schedule: Q01DX009 (ip), vehicle: water) 93 % of control.
In the case of `O=CC=O`, the T/C is, setting by setting: under setting [5], 114 % of control; under setting [6], 110 % of control; under setting [7], 102 % of control and 108 % of control; under setting [8], 114 % of control and 106 % of control; under setting [9], 120 % of control and 108 % of control.
As to `O=C1C(Cl)=C(Cl)C(=O)C2=C1C1c3ccccc3C2c2ccccc21`, the T/C reads like this: under setting [8], 94 % of control; under setting [9], 86 % of control.
